Where two headings read alike, the source gives them in different places.
Experiments:
Format in all cases: biochemical
[1] = target: T1, aggrecanase-1 (Homo sapiens, UniProt O75173); assay: Aggrecanase-1 inhibitory action (Particle Assay, GAG release from aggrecan-containing polyacrylamide particles)
T1 sequence (O75173 213-837): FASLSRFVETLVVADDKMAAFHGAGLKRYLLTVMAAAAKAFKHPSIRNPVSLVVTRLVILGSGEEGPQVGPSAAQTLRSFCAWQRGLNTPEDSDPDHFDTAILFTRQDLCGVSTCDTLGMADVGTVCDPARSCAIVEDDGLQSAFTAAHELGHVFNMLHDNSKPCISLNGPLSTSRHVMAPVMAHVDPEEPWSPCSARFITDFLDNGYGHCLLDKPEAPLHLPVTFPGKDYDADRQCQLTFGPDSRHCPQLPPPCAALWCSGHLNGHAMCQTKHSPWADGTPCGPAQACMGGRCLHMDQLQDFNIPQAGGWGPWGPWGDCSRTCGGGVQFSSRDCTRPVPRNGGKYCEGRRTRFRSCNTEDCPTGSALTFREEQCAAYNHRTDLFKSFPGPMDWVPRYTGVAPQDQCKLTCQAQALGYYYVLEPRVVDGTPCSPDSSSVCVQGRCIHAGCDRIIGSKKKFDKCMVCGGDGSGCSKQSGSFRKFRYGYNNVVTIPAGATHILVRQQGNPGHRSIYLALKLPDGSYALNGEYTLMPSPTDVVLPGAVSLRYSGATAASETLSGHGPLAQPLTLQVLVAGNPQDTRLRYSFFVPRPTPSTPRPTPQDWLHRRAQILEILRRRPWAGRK
In short: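 Enzyme and compound incubated with aggrecan-containing polyacrylamide particles in Tris-HCl buffer at 37° C for 15 h. Released GAG in supernatant measured with 1,9-dimethylmethylene blue at 595 nm against chondroitin sulfate standard; % inhibition from enzyme-free and inhibitor-free wells, reported as TC50 (μM).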

[2] = target: T2, Recombinant Human MMP-13 (Homo sapiens, UniProt P45452); assay: MMP-13 inhibitory activity (MMP-13 specific fluorescent substrate with quencher)
T2 construct: purchased R&D systems 511-MM
In short: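 Recombinant human MMP-13 with test compound, reaction started with quenched fluorogenic peptide 7-MCA-Pro-CHA-Gly-NVal-His-Ala-DPA in Tris-HCl buffer, 1 h at 25 °C, stopped with acetic acid. Fluorescence at Ex 325/Em 405 nm; % inhibition versus enzyme-free and inhibitor-free wells, reported as IC50 (μM).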

[3] = target: T3, MMP-1 (Homo sapiens, UniProt P03956); assay: MMP-1 inhibitory action (Type I collagen Activity Measurement kit, FITC-labeled collagen type I)
T3 sequence (P03956 100-469): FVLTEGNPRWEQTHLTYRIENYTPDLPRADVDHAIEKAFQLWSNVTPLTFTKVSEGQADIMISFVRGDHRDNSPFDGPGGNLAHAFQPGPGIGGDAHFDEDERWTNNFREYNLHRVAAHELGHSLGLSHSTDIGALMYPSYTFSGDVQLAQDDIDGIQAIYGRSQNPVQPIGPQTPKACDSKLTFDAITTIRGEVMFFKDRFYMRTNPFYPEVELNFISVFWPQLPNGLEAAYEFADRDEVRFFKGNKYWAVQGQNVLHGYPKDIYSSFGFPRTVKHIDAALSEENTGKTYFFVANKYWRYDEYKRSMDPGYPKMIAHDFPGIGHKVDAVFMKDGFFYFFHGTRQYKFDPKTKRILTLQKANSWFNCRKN

[4] = aggrecanase-1 inhibitory action, read-out: IC50 AG1 (Experimental Example 1)
[5] = Recombinant Human MMP-13, fluorescent substrate, 25° C. for 1 h, read-out: IC50 MMP13 (Experimental Example 3)
[6] = MMP-1 inhibitory action, FITC-labeled collagen type I, 37° C. for 3 hr, read-out: IC50 MMP1 (Experimental Example 2)
[7] = Experimental Example 1, read-out: IC50 AG1
[8] = Experimental Example 3, read-out: IC50 MMP13
[9] = Experimental Example 2, read-out: IC50 MMP1

SMILES | IC50 [1, 4] | IC50 [2, 5] | IC50 [3, 6] | IC50 [1, 7] | IC50 [2, 8] | IC50 [3, 9]
CN1CCN(Cc2cccc(C3CC3(NS(=O)(=O)c3ccc(-c4ccc(Cl)cc4)s3)C(=O)O)c2)CC1 (stereo not drawn) [Example 1-103] | < 1 µM | < 1 µM | ≥ 10 µM |  |  | 
O=C1CCCN1c1ccc(S(=O)(=O)N[C@@]2(C(=O)O)C[C@@H]2c2ccccc2)s1 [Example 2-163] | ≥ 10 µM | ≥ 10 µM | ≥ 10 µM |  |  | 
CCNC(=O)c1ccc(S(=O)(=O)NC2(C(=O)O)CC2c2ccccc2)s1 (stereo not drawn) [Example 2-104] | ≥ 10 µM | ≥ 10 µM | ≥ 10 µM |  |  | 
O=C(O)[C@]1(NS(=O)(=O)c2ccc(-c3cccc(C(F)(F)F)c3)s2)C[C@@H]1c1ccccc1 [Example 2-134] | ≥ 10 µM | < 1 µM | ≥ 10 µM |  |  | 
O=C(O)c1cccc([C@H]2C[C@@]2(NS(=O)(=O)c2ccc(-c3ccc(Cl)cc3)s2)C(=O)O)c1 [Example 2-175] | < 0.1 µM | < 1 µM | ≥ 1 µM |  |  | 
O=C1O[C@@H]([C@H]2C[C@@]2(NS(=O)(=O)c2ccc(-c3ccc(Cl)cc3)s2)C(=O)O)CN1Cc1ccccc1 [Example 2-139] | ≥ 1 µM | ≥ 1 µM | ≥ 10 µM |  |  | 
O=C(O)[C@@]1(NS(=O)(=O)c2ccc(-c3ccc(Cl)cc3)s2)C[C@H]1c1ccccc1 [Example 2-192] | < 1 µM | < 1 µM | ≥ 10 µM |  |  | 
C[C@@H]1[C@H](c2ccccc2)[C@]1(NS(=O)(=O)N1CCN(c2ccc(C(F)(F)F)cn2)CC1)C(=O)O [Example 2-5, (1S,2R,3R)-2-methyl-3-phenyl-1-[4-(5-trifluoromethyl-pyridin-2-yl)-piperazine-1-sulfonylamino]-cyclopropanecarboxylic acid] | < 1 µM | < 0.1 µM | ≥ 1 µM |  |  | 
O=C(O)C1(CS(=O)(=O)N2CCN(c3ccc(Cl)cc3)CC2)CC1c1ccccc1 (stereo not drawn) [Example 2-186] | ≥ 1 µM | ≥ 1 µM | ≥ 10 µM |  |  | 
CC(=O)OCCc1cccc(C2CC2(NS(=O)(=O)c2ccc(-c3ccc(Cl)cc3)s2)C(=O)O)c1 (stereo not drawn) [Example 2-108] | < 0.1 µM | < 0.1 µM | ≥ 1 µM |  |  | 

More lines, now with the values ahead:

IC50 [1, 4] | IC50 [2, 5] | IC50 [3, 6] | IC50 [1, 7] | IC50 [2, 8] | IC50 [3, 9] | SMILES
< 1 µM | < 1 µM | ≥ 10 µM |  |  |  | O=C(O)C1(NS(=O)(=O)c2ccc(-c3ccc(Cl)cc3)s2)CC1c1ccc(CO)cc1 (stereo not drawn) [Example 2-226]
 |  |  | < 0.1 µM | < 0.1 µM | < 1 µM | O=C(O)C1(NS(=O)(=O)c2ccc(-c3ccc(Cl)cc3)s2)C2CCC(O)c3ccccc3C21 (stereo not drawn) [Example 2-411]
 |  |  | < 0.1 µM | < 0.1 µM | < 1 µM | NC(=O)Cc1ccc([C@@H]2C[C@]2(NS(=O)(=O)c2ccc(-c3cc(C(F)(F)F)on3)s2)C(=O)O)cc1 [Example 2-292]
 |  |  | < 1 µM | < 1 µM | ≥ 10 µM | O=C(O)C1(NS(=O)(=O)c2ccc(-c3ccc(Cl)cc3)s2)CC1(Cn1ccnc1)c1ccccc1 (stereo not drawn) [Example 2-346]
 |  |  | < 0.1 µM | < 0.1 µM | ≥ 1 µM | CN(C)C(=O)OCCC1(c2ccccc2)CC1(NS(=O)(=O)c1ccc(-c2ccc(Cl)cc2)s1)C(=O)O (stereo not drawn) [Example 2-303]
< 1 µM | < 0.1 µM | ≥ 10 µM |  |  |  | Nc1cccc(C2CC2(NS(=O)(=O)c2ccc(-c3cc(C(F)(F)F)on3)s2)C(=O)O)c1 (stereo not drawn) [Example 2-201]
 |  |  | < 1 µM | < 0.1 µM | ≥ 1 µM | CCOC(=O)c1cnn(-c2ccc(S(=O)(=O)N[C@@]3(C(=O)O)C(C)[C@@H]3c3ccccc3)s2)c1 (stereo partly drawn) [Example 2-521]
 |  |  | < 0.1 µM | < 0.1 µM | < 1 µM | CC1[C@H](c2ccccc2)[C@]1(NS(=O)(=O)c1ccc(-c2cc3ccccc3[nH]2)s1)C(=O)O (stereo partly drawn) [Example 2-493]
 |  |  | < 1 µM | < 1 µM | ≥ 1 µM | NCc1ccc([C@@H]2C[C@]2(NS(=O)(=O)c2ccc(-c3cc(C(F)(F)F)on3)s2)C(=O)O)cc1 [Example 2-289]
 |  |  | < 1 µM | < 0.1 µM | ≥ 1 µM | CC1C(c2ccccc2)C1(NS(=O)(=O)c1ccc(-c2cccc(O)c2)s1)C(=O)O (stereo not drawn) [Example 2-509]
